Data on 69 compounds can be found in patent US20140120060A1, “TREATMENT OF RHEUMATOID ARTHRITIS AND ASTHMA USING PI3 KINASE INHIBITORS” (INFINITY PHARMACEUTICALS, INC., priority 2012, published 2014).

By EC50 is commonly meant the midpoint of the concentration-response curve.

For this test, the system named is B cell. Briefly: B cell proliferation. The test is classed as cell-based.
In turn, `Cc1cccc2cc(Cn3nc(-c4ccc(O)c(F)c4)c4c(N)ncnc43)n(-c3ccccc3F)c(=O)c12` [Compound 29] yielded an EC50 of less than 1 µM.

In turn, `Cc1ccccc1-n1c(Cn2nc(C(F)F)c3c(N)ncnc32)cc2cccc(C)c2c1=O` [Compound 306] returned a half-maximal effective concentration (EC50) of less than 0.1 µM.

In turn, `Cc1cccc2cc(Cn3nc(-c4ccc5sc(N)nc5c4)c4c(N)ncnc43)n(-c3ccccc3)c(=O)c12` [Compound 277] had an EC50 of less than 0.1 µM.

`Cc1cccc2cc(Cn3nc(C#C[C@@H](C)O)c4c(N)ncnc43)n(C3CC3)c(=O)c12` [Compound 100] came in with an EC50 of less than 1 µM.

Compound `Cc1ccccc1-n1c(Cn2nc(-c3ccc4nc(N)sc4c3)c3c(N)ncnc32)cc2cccc(C)c2c1=O` [Compound 145] showed an EC50 of less than 1 µM.

In turn, `Cc1ccccc1-n1c(Cn2nc(I)c3c(N)ncnc32)cc2cccc(F)c2c1=O` [Compound 42] had an EC50 of less than 1 µM.

With `Cc1cccc2cc(Cn3nc(-c4cn[nH]c4)c4c(N)ncnc43)n(-c3ccccc3C(C)C)c(=O)c12` [Compound 185], the concentration for a half-maximal effect (EC50) is less than 0.1 µM.

Regarding `Nc1ncnc2c1c(I)nn2Cc1cc2cccc(Cl)c2c(=O)n1C1CC1` [Compound 139], the EC50 is less than 0.1 µM.

For the compound `Cc1cccc2cc(Cn3nc(-c4cccc(O)c4)c4c(N)ncnc43)n(C(C)C)c(=O)c12` [Compound 62], the EC50 is less than 0.1 µM.

On to `CCC(Nc1ncnc2[nH]cnc12)c1cc2cccc(C)c2c(=O)n1-c1cc(F)cc(F)c1` (stereo not drawn) [Compound 224], for which the EC50 was less than 0.1 µM.

Take `Cc1cccc2cc(Cn3nc(Br)c4c(N)ncnc43)n(-c3ccccc3F)c(=O)c12` [Compound 35]: the EC50 is less than 1 µM.

`Cc1cccnc1-n1c(Cn2nc(C#C[C@@H](C)O)c3c(N)ncnc32)cc2cccc(C)c2c1=O` [Compound 69] had an EC50 of less than 1 µM.

For `Cc1ccccc1-n1c(Cn2nc(-c3cccc(F)c3)c3c(N)ncnc32)cc2cccc(C)c2c1=O` [Compound 41], the EC50 is less than 1 µM.

Compound `Cc1cccc2cc(Cn3nc(-c4cc(O)cc(F)c4)c4c(N)ncnc43)n(-c3ccccc3Cl)c(=O)c12` [Compound 97] returned an EC50 of less than 0.1 µM.

Consider `Cc1cccc2cc(Cn3nc(-c4ccc(O)c(Cl)c4)c4c(N)ncnc43)n(-c3ccccc3F)c(=O)c12` [Compound 26], for which the 50% effective concentration (EC50) was less than 10 µM.

`Cc1ccccc1-n1c(Cn2nc(-c3ccc4nc(N)oc4c3)c3c(N)ncnc32)cc2cccc(C)c2c1=O` [Compound 243] had an EC50 of less than 1 µM.

For the compound `Cc1cccc2cc(Cn3nc(I)c4c(N)ncnc43)n(-c3ccccc3C(C)C)c(=O)c12` [Compound 75], the EC50 was less than 0.1 µM.

`Cc1cccc2cc(Cn3nc(C#C[C@@H](C)O)c4c(N)ncnc43)n(-c3ccccc3F)c(=O)c12` [Compound 28] had an EC50 of less than 1 µM.

On to `Cc1cccc2cc(C(C)Nc3ncnc4[nH]cnc34)n(C3CCN(C)CC3)c(=O)c12` (stereo not drawn) [Compound 227], for which the half-maximal effective concentration (EC50) is less than 0.1 µM.

`CCc1nn(Cc2cc3cccc(C)c3c(=O)n2-c2ccccc2)c2ncnc(N)c12` [Compound 303] registered an EC50 of less than 0.1 µM.

Turning to `CC(=O)Nc1nc2ccc(-c3nn(Cc4cc5cccc(C)c5c(=O)n4C)c4ncnc(N)c34)cc2s1` [Compound 153], the EC50 is less than 0.1 µM.

Turning to `Cc1cccc2cc(C(C)Nc3ncnc4[nH]cnc34)n(-c3ccccc3F)c(=O)c12` (stereo not drawn) [Compound 167], the concentration for a half-maximal effect (EC50) is less than 0.1 µM.

`Cc1cccc2cc(Cn3nc(-c4cccc(O)c4)c4c(N)ncnc43)n(C3CCC3)c(=O)c12` [Compound 114] registered an EC50 of less than 1 µM.

`CCC(Nc1ncnc2[nH]cnc12)c1cc2cccc(C)c2c(=O)n1C(C)C` (stereo not drawn) [Compound 219] had an EC50 of less than 0.1 µM.

With `CCn1c(Cn2nc(-c3cccc(O)c3)c3c(N)ncnc32)cc2cccc(C)c2c1=O` [Compound 126], the EC50 was less than 0.1 µM.

With `Cc1cccc2cc([C@H](C)Nc3nc(N)ncc3Cl)n(-c3ccccc3)c(=O)c12` [Compound 249], the EC50 was less than 0.1 µM.

The compound `Cc1cccc2cc([C@H](C)Nc3ncnc4[nH]cc(Br)c34)n(-c3ccccc3)c(=O)c12` [Compound 257] returned an EC50 of less than 0.1 µM.

In turn, `Nc1ncnc2c1c(-c1cc(O)cc(F)c1)nn2Cc1cc2cccc(F)c2c(=O)n1-c1ccccc1F` [Compound 144] yielded an EC50 of less than 0.1 µM.

Take `Cc1cccc2cc(Cn3nc(-c4ccc5nc(N)sc5c4)c4c(N)ncnc43)n(-c3ccccc3)c(=O)c12` [Compound 252]: the EC50 is less than 0.1 µM.

In turn, `COc1ccccc1-n1c(Cn2nc(I)c3c(N)ncnc32)cc2cccc(C)c2c1=O` [Compound 70] gave an EC50 of less than 1 µM.

The compound `Cc1ccccc1-n1c(Cn2nc(Cl)c3c(N)ncnc32)cc2cccc(C)c2c1=O` [Compound 20] returned an EC50 of less than 1 µM.

On to `COc1cc(-c2nn(Cc3cc4cccc(C)c4c(=O)n3-c3ccccc3F)c3ncnc(N)c23)ccc1Cl` [Compound 22], for which the EC50 is less than 10 µM.

On to `Cc1cccc2cc(Cn3nc(-c4cn[nH]c4)c4c(N)ncnc43)n(-c3ccccc3F)c(=O)c12` [Compound 161], for which the EC50 was less than 1 µM.

For `Cc1cccc2cc([C@H](C)Nc3ncnc4[nH]cnc34)n(-c3ccccc3)c(=O)c12` [Compound 196], the EC50 was less than 0.1 µM.

Regarding `Cc1cccc2cc([C@H](C)Nc3ncnc4[nH]cc(F)c34)n(C3CC3)c(=O)c12` [Compound 278], the EC50 was less than 0.1 µM.

Turning to `Cc1ccccc1-n1c(Cn2nc(-c3ccc(O)c(Cl)c3)c3c(N)ncnc32)cc2cccc(C)c2c1=O` [Compound 25], the EC50 is less than 1 µM.

For `CC(C)n1c(Cn2nc(-c3cccc(O)c3)c3c(N)ncnc32)cc2cccc(F)c2c1=O` [Compound 133], the EC50 is less than 1 µM.

`Cc1cccc2cc(C(C)Nc3ncnc4[nH]cnc34)n(C3CCOCC3)c(=O)c12` (stereo not drawn) [Compound 234]: the EC50 was less than 0.1 µM.

Consider `Cc1ccccc1-n1c(Cn2nc(-c3cccc(O)c3)c3c(N)ncnc32)cc2cccc(C)c2c1=O` [Compound 13], for which the EC50 was less than 0.1 µM.

As for `Cc1cccc2cc(Cn3nc(-c4ccc5oc(N)nc5c4)c4c(N)ncnc43)n(C3CC3)c(=O)c12` [Compound 201], the EC50 was less than 0.1 µM.

Take `COc1ccccc1-n1c(Cn2nc(-c3cccc(O)c3)c3c(N)ncnc32)cc2cccc(C)c2c1=O` [Compound 74]: the EC50 was less than 0.1 µM.

With `Cc1ccccc1-n1c(Cn2nc(-c3cc(O)cc(F)c3)c3c(N)ncnc32)cc2ccccc2c1=O` [Compound 33], the EC50 was less than 0.1 µM.

`CC(Nc1ncnc2[nH]cnc12)c1cc2cccc(Cl)c2c(=O)n1-c1ccccc1` (stereo not drawn) [Compound 237] yielded a concentration giving a half-maximal response (EC50) of less than 0.1 µM.

Compound `CCC(Nc1ncnc2[nH]cnc12)c1cc2cccc(C)c2c(=O)n1-c1ccccc1C` (stereo not drawn) [Compound 202] registered an EC50 of less than 0.1 µM.

`Cc1cccc2cc(C(C)Nc3ncnc4[nH]cnc34)n(-c3cc(F)cc(F)c3)c(=O)c12` (stereo not drawn) [Compound 222]: the EC50 was less than 0.1 µM.

On to `Cc1ccccc1-n1c(Cn2nc(C#CCO)c3c(N)ncnc32)cc2cccc(C)c2c1=O` [Compound 11], for which the EC50 was less than 1 µM.

`CC(Nc1ncnc2[nH]cnc12)c1cc2ccccc2c(=O)n1-c1ccccc1` (stereo not drawn) [Compound 220] gave an EC50 of less than 0.1 µM.

The compound `Cc1ccccc1-n1c(Cn2nc(-c3ccc4nc(N)ncc4c3)c3c(N)ncnc32)cc2cccc(C)c2c1=O` [Compound 150] showed an EC50 of less than 0.1 µM.

`COc1ccc(-c2nn(Cc3cc4cccc(C)c4c(=O)n3-c3ccccc3C)c3ncnc(N)c23)cc1OC` [Compound 44] gave an EC50 of less than 0.1 µM.

`Cc1cccnc1-n1c(Cn2nc(I)c3c(N)ncnc32)cc2cccc(C)c2c1=O` [Compound 15] had an EC50 of less than 1 µM.

The compound `Cc1ccccc1-n1c(C(C)Nc2ncnc3[nH]cnc23)cc2cccc(C)c2c1=O` (stereo not drawn) [Compound 191] returned an EC50 of less than 0.1 µM.

`Cc1cccc2cc(Cn3nc(-c4cc(O)cc(F)c4)c4c(N)ncnc43)n(C3CCCC3)c(=O)c12` [Compound 63] returned an EC50 of less than 0.1 µM.

`Cc1cccc2cc(Cn3nc(-c4cc(O)cc(F)c4)c4c(N)ncnc43)n(-c3ccccc3)c(=O)c12` [Compound 147] displayed an EC50 of less than 0.1 µM.

As for `Cc1cccc2cc([C@H](C)Nc3nc(Cl)nc4[nH]cnc34)n(-c3ccccc3)c(=O)c12` [Compound 244], the EC50 was less than 0.1 µM.

In turn, `Cc1ccccc1-n1c(Cn2nc(-c3ccc(F)c(O)c3)c3c(N)ncnc32)cc2cccc(C)c2c1=O` [Compound 12] had an EC50 of less than 0.1 µM.

On to `CCc1ccccc1-n1c(Cn2nc(-c3cn[nH]c3)c3c(N)ncnc32)cc2cccc(C)c2c1=O` [Compound 190], for which the half-maximal effective concentration (EC50) was less than 0.1 µM.

For `Cc1cccc2cc(Cn3nc(-c4cccc(O)c4)c4c(N)ncnc43)n(-c3ccccc3F)c(=O)c12` [Compound 10], the EC50 is less than 1 µM.

The compound `Cc1ccccc1-n1c(Cn2nc(C#CC3CC3)c3c(N)ncnc32)cc2cccc(C)c2c1=O` [Compound 14] had an EC50 of less than 1 µM.

In turn, `Cc1cccc2cc(Cn3nc(-c4cc(O)cc(F)c4)c4c(N)ncnc43)n(-c3ccccc3O)c(=O)c12` [Compound 90] yielded an EC50 of less than 0.1 µM.

The compound `Cc1ccccc1-n1c(Cn2nc(C(=O)NO)c3c(N)ncnc32)cc2cccc(C)c2c1=O` [Compound 300] came in with an EC50 of less than 0.1 µM.

In turn, `Cc1cccc2cc([C@@H](C)Nc3ncnc4[nH]cnc34)n(C3CCC3)c(=O)c12` [Compound 197] yielded an EC50 of less than 10 µM.

Take `Cc1cccc2cc(C(C)Nc3ncnc4[nH]cnc34)n(-c3cccc(F)c3)c(=O)c12` (stereo not drawn) [Compound 229]: the EC50 is less than 0.1 µM.

The compound `Cc1ccccc1-n1c(Cn2nc(-c3ccc(F)cc3)c3c(N)ncnc32)cc2cccc(C)c2c1=O` [Compound 27] came in with an EC50 of less than 10 µM.

`Cc1cccc2cc([C@H](C)Nc3ncnc4[nH]cc(C#N)c34)n(C3CC3)c(=O)c12` [Compound 289] registered an EC50 of less than 0.1 µM.

With `Cc1cccc2cc(Cn3nc(C#C[C@@H](C)O)c4c(N)ncnc43)n(C3CCCCC3)c(=O)c12` [Compound 112], the concentration giving a half-maximal response (EC50) is less than 10 µM.

Consider `Cc1cccc2cc([C@@H](C)Nc3ncnc4[nH]cnc34)n(-c3ccccc3)c(=O)c12` [Compound 195], for which the EC50 was less than 1 µM.

As to `Cc1ccccc1-n1c(Cn2nc(-c3cccc(O)c3)c3c(N)ncnc32)cc2ccccc2c1=O` [Compound 51], the EC50 was less than 1 µM.

In turn, `C[C@H](Nc1ncnc2[nH]cnc12)c1cc2cccc(Cl)c2c(=O)n1C1CC1` [Compound 270] came in with an EC50 of less than 0.1 µM.

With `COc1ccc(-c2nn(Cc3cc4cccc(C)c4c(=O)n3-c3ccccc3C)c3ncnc(N)c23)cc1` [Compound 45], the EC50 is less than 1 µM.
